# Source: ChEMBL document CHEMBL1201862, “PubChem BioAssay data set” (2004)
# Calls of active or inactive are those of the source.
# Assays:
# [1] = target: Ras and Rab interactor 1/Tyrosine-protein kinase ABL1 (Homo sapiens, UniProt P00519+Q13671); type: functional;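 note: biochemical TR-FRET dose-response test measuring inhibition of binding between Rin1 and Abl proteins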
# [2] = target: Potassium voltage-gated channel subfamily KQT member 2 (Rattus norvegicus, UniProt O88943); assay: blockers of KCNQ2 channel current – cell-based, automated electrophysiology, set II, rat KCNQ2, dose response (AID 588637); type: functional
# Cytochrome P450 2C19 = Cytochrome P450 2C19 (Homo sapiens, UniProt P33261); assay: Cytochrome panel assay with activity outcomes. Panel member name: p450-cyp2c19 Compounds with AC50 equal or less than 10 uM are considered active; type: functional; details: read-out: AC50
# [3] = target: T1, Carboxy-terminal domain RNA polymerase II polypeptide A small phosphatase 1 (Homo sapiens, UniProt Q9GZU7); assay: CTDSP1 inhibitors, concentration-response, biochemical, absorbance readout, ultra-high-throughput screen actives (AID 540297); type: functional
# T1 sequence (Q9GZU7 whole entry): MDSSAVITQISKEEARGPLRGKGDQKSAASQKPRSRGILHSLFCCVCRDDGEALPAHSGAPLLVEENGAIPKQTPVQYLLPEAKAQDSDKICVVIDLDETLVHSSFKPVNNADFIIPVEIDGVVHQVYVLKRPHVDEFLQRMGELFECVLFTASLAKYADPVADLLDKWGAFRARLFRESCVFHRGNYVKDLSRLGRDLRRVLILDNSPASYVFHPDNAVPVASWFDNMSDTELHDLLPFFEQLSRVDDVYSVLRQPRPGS
# [4] = target: T2, Low molecular weight phosphotyrosine protein phosphatase (Homo sapiens, UniProt P24666); type: functional; details: read-out: IC50_Mean
# T2 sequence (P24666 whole entry): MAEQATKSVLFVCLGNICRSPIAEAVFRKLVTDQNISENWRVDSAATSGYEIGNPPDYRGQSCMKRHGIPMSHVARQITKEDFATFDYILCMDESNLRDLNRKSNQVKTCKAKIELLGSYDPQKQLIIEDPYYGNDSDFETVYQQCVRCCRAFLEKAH
# [5] = target: T2, Low molecular weight phosphotyrosine protein phosphatase; type: functional; details: read-out: IC50_Mean; remark: listed apart in the source
# [6] = target: T3, Tyrosine-protein phosphatase non-receptor type 22 (Homo sapiens, UniProt Q9Y2R2); assay: PTPN22 enzyme inhibitors – biochemical, fluorescence, LYP catalytic domain, selectivity assay for LMPTP inhibitor project, dose response (AID 652006); type: functional; details: read-out: IC50_Mean
# T3 sequence (Q9Y2R2 whole entry): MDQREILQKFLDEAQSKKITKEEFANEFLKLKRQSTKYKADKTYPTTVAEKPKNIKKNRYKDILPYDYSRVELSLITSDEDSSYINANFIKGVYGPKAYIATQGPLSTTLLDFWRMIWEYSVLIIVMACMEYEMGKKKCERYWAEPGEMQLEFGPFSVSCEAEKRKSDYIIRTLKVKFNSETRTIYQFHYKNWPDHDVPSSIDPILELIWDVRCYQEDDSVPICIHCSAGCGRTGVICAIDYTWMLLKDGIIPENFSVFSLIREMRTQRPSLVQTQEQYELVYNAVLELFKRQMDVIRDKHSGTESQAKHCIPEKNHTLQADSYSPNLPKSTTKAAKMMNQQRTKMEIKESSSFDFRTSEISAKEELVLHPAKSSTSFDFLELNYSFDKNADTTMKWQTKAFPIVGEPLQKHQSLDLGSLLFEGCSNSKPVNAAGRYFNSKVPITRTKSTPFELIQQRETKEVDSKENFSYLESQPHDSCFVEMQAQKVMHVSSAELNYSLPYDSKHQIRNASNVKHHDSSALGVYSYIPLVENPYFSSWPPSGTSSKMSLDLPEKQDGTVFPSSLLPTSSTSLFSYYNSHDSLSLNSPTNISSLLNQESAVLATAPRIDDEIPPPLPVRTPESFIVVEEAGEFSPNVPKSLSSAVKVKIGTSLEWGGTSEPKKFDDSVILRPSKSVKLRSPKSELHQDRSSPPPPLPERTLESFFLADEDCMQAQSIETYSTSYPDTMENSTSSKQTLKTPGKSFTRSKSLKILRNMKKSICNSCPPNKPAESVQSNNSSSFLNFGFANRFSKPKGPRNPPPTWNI
# Cytochrome P450 2C9 = Cytochrome P450 2C9 (Homo sapiens, UniProt P11712)
# Protein Wnt-3a = Protein Wnt-3a (Mus musculus, UniProt P27467); assay: antagonism of Wnt3a pathway luciferase reporter – Wnt-LIGHT cells, luminescence, selectivity assay for Gli-SUFU antagonist project, dose response (AID 651570); type: functional; details: read-out: IC50_Mean;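 note: Wnt-LIGHT reporter cells stimulated with conditioned medium from Wnt3a-producing cells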
# Melanocortin receptor 4 [7] = target: T4, Melanocortin receptor 4 (Homo sapiens, UniProt P32245); assay: inhibitors of MC4R cAMP signaling – cell-based, TR-FRET, biased antagonists, dose response (AID 602298); type: functional;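 note: antagonist potency against agonist-stimulated cAMP production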
# [8] = cAMP pathway inhibition in counterscreen cell line – TR-FRET cAMP detection, counter-screen for MC4R biased antagonist project, dose response (AID 602305); type: functional, cell-based;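 note: U2OS cells stimulated with forskolin near its EC80 as the cAMP inducer; potency is for inhibition of forskolin-stimulated cAMP signaling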
# [9] = target: T5, ATP-dependent translocase ABCB1 (Homo sapiens, UniProt P08183); assay: inhibition of BCRP-mediated JC-1 efflux – Ig-MXP3 cells, flow cytometry, set 2, dose response (AID 504566); type: functional; details: read-out: EC50_MICROM_;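 note: flow cytometry median green fluorescence of retained JC-1 dye; potency of efflux pump inhibition measured as rising substrate retention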
# [10] = target: T5, ATP-dependent translocase ABCB1; assay: P-gp JC-1 efflux blockade concentration-response – Jurkat-DNR cells, flow cytometry, set 2, dose response (AID 504569); type: functional; details: read-out: EC50_MICROM_;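 note: potency of pump inhibitors that raise cellular JC-1 green fluorescence up to the nicardipine level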
# [11] = microbe, parasite or virus in culture; type: functional; details: Mycobacterium tuberculosis
# Melanocortin receptor 4 [12] = target: T4, Melanocortin receptor 4; type: functional, cell-based
# [13] = target: T6, Mitochondrial peptide methionine sulfoxide reductase (Bos taurus, UniProt P54149); type: functional;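 note: absorbance read-out, biochemical high-throughput dose-response screen for MsrA inhibitors, confirmatory; recombinant bovine MsrA coupled to E. coli TrxB with NADPH and selenocystamine; potency is for inhibitors of MsrA activity on DMSO substrate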
# T6 sequence (P54149 whole entry): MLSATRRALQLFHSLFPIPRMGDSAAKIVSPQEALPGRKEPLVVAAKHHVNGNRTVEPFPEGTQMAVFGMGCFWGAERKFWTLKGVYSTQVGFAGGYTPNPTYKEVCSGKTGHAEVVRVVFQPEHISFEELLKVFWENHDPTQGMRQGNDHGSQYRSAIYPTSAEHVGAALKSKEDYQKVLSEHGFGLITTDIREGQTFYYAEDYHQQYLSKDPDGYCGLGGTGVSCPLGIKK
# T4 sequence (P32245 whole entry): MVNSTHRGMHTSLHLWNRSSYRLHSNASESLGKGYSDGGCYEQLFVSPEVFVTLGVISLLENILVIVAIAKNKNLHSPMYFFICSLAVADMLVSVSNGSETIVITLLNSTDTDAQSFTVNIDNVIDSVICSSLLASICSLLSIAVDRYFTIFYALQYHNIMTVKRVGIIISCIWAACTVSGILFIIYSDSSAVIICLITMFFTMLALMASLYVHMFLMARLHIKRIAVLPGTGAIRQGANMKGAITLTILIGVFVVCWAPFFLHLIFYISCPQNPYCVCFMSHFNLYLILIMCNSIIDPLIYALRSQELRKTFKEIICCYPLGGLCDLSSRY
# T5 sequence (P08183 whole entry): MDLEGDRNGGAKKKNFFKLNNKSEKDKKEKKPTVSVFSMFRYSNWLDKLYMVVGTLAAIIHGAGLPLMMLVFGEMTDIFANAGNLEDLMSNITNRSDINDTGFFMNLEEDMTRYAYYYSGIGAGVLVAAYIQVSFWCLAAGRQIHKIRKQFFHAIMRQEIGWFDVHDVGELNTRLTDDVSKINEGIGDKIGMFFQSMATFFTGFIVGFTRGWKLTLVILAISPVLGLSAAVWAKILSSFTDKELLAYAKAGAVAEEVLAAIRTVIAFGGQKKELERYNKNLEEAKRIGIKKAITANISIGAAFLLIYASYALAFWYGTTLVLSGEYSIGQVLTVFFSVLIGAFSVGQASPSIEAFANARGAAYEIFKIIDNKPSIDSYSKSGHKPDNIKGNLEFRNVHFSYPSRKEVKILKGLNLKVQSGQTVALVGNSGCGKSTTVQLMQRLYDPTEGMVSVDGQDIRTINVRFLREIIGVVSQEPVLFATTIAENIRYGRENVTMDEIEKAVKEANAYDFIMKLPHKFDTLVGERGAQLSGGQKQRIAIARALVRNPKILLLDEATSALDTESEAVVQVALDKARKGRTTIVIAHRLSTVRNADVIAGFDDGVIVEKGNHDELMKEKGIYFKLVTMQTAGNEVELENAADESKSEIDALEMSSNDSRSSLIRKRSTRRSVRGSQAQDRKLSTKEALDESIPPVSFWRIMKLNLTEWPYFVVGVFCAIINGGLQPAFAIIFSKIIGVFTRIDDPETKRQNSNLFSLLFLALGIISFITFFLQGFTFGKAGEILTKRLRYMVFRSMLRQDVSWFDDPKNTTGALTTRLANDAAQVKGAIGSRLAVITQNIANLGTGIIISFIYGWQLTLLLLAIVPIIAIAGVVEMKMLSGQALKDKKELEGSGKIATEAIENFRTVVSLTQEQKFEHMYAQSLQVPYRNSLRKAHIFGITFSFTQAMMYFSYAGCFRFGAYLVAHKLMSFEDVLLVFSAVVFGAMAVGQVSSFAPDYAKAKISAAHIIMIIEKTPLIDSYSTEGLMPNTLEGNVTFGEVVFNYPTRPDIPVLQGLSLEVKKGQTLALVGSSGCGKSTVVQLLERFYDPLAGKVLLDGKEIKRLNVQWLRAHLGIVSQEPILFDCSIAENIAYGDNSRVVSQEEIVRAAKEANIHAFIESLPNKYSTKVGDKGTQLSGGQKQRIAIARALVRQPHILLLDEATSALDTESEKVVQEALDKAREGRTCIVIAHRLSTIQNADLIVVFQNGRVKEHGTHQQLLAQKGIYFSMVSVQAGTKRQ
# Sequence of Cytochrome P450 2C9 (P11712 whole entry): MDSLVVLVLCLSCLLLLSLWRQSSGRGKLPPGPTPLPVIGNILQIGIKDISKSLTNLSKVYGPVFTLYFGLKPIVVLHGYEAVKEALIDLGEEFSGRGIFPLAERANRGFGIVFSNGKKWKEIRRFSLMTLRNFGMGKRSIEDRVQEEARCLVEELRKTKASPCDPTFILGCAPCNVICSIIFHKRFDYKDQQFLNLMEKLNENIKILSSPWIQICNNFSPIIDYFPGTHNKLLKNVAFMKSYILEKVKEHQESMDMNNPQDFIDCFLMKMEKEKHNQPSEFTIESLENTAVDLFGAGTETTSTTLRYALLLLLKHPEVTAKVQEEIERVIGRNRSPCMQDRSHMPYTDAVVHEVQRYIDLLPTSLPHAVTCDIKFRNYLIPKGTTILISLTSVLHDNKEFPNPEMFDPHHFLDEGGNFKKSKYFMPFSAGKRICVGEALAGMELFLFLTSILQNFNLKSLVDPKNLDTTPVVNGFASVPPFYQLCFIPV
# Sequence of Cytochrome P450 2C19 (P33261 whole entry, the tested form may be a part): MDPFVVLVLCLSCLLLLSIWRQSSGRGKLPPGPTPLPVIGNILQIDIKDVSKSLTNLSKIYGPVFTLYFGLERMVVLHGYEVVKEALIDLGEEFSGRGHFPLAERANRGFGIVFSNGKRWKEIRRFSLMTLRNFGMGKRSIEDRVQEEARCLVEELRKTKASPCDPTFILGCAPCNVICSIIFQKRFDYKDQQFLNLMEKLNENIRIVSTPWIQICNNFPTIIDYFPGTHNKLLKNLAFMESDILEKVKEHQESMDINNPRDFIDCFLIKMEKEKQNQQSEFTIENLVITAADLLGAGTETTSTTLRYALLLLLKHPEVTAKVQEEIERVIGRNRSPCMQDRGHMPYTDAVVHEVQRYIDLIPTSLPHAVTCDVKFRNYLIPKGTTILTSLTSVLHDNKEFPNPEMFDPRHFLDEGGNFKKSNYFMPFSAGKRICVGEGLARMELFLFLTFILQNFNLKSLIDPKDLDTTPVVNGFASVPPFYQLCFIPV
# Sequence of Protein Wnt-3a (P27467 whole entry): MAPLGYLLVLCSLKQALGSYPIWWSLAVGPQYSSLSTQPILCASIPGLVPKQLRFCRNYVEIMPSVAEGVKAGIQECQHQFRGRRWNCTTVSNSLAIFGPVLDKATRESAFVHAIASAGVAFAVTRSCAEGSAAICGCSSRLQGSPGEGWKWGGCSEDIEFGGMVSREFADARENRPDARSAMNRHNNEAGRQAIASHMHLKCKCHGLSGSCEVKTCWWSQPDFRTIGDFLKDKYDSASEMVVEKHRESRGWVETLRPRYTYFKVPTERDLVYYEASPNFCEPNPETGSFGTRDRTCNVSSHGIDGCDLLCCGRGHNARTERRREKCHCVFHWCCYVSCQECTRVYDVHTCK
# Sequence of Ras and Rab interactor 1/Tyrosine-protein kinase ABL1 (P00519 whole entry): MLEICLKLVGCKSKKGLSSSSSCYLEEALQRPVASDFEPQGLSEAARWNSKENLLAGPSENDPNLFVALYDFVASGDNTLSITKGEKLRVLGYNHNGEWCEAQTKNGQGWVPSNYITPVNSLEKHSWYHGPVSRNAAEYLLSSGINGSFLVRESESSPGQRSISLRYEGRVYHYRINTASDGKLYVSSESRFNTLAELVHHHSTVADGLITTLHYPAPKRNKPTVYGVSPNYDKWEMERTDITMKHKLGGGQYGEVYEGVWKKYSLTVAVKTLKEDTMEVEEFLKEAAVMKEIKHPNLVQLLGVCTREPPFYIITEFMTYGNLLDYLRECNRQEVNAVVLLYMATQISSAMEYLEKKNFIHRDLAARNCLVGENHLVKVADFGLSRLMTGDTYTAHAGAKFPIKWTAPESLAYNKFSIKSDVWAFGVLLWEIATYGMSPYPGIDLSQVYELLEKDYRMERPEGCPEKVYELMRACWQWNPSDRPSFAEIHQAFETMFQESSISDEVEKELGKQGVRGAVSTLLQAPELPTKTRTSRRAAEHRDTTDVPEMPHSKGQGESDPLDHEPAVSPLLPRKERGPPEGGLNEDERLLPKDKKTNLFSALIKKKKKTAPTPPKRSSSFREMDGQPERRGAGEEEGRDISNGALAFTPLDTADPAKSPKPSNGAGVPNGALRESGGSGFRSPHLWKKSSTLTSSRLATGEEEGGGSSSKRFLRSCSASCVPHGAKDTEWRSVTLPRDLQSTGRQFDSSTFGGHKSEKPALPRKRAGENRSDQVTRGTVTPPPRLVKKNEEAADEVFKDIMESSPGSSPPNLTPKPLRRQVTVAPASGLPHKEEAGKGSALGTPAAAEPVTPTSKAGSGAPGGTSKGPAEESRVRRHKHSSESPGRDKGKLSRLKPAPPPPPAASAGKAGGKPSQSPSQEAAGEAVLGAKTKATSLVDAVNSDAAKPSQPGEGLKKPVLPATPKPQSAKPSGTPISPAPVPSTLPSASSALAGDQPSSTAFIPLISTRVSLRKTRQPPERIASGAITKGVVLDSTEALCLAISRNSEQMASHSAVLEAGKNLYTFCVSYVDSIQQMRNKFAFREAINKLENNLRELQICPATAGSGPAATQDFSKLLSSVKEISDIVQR
# Sequence of Ras and Rab interactor 1/Tyrosine-protein kinase ABL1 (Q13671 whole entry): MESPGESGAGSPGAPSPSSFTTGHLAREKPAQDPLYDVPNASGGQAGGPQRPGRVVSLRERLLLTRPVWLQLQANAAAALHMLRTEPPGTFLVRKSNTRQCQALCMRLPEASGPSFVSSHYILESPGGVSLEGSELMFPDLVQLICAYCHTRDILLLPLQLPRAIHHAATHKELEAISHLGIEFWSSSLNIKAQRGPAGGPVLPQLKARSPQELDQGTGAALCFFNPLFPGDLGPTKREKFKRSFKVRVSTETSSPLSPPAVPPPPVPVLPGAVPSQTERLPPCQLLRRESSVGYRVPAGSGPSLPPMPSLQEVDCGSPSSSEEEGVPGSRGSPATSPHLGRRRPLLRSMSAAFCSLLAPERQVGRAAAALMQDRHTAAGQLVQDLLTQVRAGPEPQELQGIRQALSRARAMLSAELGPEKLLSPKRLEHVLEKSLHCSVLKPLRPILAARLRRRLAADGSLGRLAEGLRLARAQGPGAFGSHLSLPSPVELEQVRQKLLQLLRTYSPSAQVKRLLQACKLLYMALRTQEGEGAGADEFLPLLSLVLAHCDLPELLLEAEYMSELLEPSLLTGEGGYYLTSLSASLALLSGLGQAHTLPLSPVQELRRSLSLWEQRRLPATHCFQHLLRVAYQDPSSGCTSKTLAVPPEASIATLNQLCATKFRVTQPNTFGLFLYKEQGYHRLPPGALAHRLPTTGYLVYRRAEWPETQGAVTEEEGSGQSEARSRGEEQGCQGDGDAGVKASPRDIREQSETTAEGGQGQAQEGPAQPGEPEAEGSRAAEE
smiles,measurement,setting,value
Cn1c(=O)[nH]c(=O)c2c1nc(NCc1ccco1)n2Cc1ccccc1Cl,IC50,[1],> 73.4 µM (inactive)
O=C(CSc1nc2ccccc2c(=O)n1NC(=O)c1ccccc1)c1ccccc1,IC50,[2],0.513 µM (active)
O=C(NNC(=O)c1cc2cc3ccccc3nc2s1)c1cccc(Cl)c1,AC50,Cytochrome P450 2C19,5.01 µM (inconclusive)
same,IC50,[3],1.9 µM (active)
same,IC50,[4],10.7 µM (active)
same,IC50,[5],8.67 µM (active)
same,IC50,[6],26.8 µM (inactive)
same,AC50,Cytochrome P450 2C9,1.41 µM (inconclusive)
COc1ccc(NS(=O)(=O)c2ccc(N3CCN(CCO)CC3)c([N+](=O)[O-])c2)cc1,IC50,Protein Wnt-3a,0.83 µM (active)
COc1ccc(/C=N/Nc2cc(C)nc(NS(=O)(=O)c3ccc(C)cc3)n2)cc1,IC50,Melanocortin receptor 4 [7],> 64.6 µM (inactive)
same,IC50,[8],> 64.6 µM (inactive)
COc1ccc(-c2cc3nc(-c4ccccc4)cc(N4CCN(C(=O)c5ccccc5)CC4)n3n2)cc1,EC50,[9],0.72 µM (active)
same,EC50,[10],0.69 µM (active)
COC(=O)c1c(NC(=O)CC2SC(N)=NC2=O)sc2c1CCC(C(C)(C)C)C2 (stereo unspecified),CC50,[11],> 40 µM (active)
same,EC50,Melanocortin receptor 4 [12],> 89.2 µM (inactive)
O=C(O)c1ccc(NS(=O)(=O)c2ccc3c(c2)C(=O)c2ccccc2C3=O)cc1,IC50,[13],91.2 µM (inactive)
